Data taken from patent US11319299B2, “Substituted carboxamides as inhibitors of WDR5 protein-protein binding” (PROPELLON THERAPEUTICS INC., priority 2016, dated 2022).

The compounds below were run against WDR5 (Homo sapiens (Human), UniProt P61964) (assay: Surface Plasmon Resonance (SPR) assay, KD and residence time). Settings: surface plasmon resonance (SPR); read-out: WDR5 binding affinity (KD).
Type: binding
COc1cnc(N2CC=C(c3cc(NC(=O)c4c[nH]c(=O)cc4C(F)(F)F)c(N4C[C@@H](C)N(C)[C@@H](C)C4)cc3F)C2)nc1 [Example 437, N-[4-fluoro-5-[1-(5-methoxypyrimidin-2-yl)-2,5-dihydropyrrol-3-yl]-2-[(3R,5S)-3,4,5-trimethylpiperazin-1-yl]phenyl]-6-oxo-4-(trifluoromethyl)-1H-pyridine-3-carboxamide] showed a Kd of 0.721 nM. Work on COc1cc(N2CC=C(c3cc(NC(=O)c4c[nH]c(=O)cc4C(F)(F)F)c(N4C[C@@H](C)N(C)[C@@H](C)C4)cc3F)C2)ncn1 [Example 438, N-[4-fluoro-5-[1-(6-methoxypyrimidin-4-yl)-2,5-dihydropyrrol-3-yl]-2-[(3R,5S)-3,4,5-trimethylpiperazin-1-yl]phenyl]-6-oxo-4-(trifluoromethyl)-1H-pyridine-3-carboxamide] yielded a Kd of 1.99 nM. Cc1cnc(N2CC=C(c3cc(NC(=O)c4c[nH]c(=O)cc4C(F)(F)F)c(N4C[C@@H](C)N(C)[C@@H](C)C4)cc3F)C2)nc1 [Example 439, N-[4-fluoro-5-[1-(5-methylpyrimidin-2-yl)-2,5-dihydropyrrol-3-yl]-2-[(3R,5S)-3,4,5-trimethylpiperazin-1-yl]phenyl]-6-oxo-4-(trifluoromethyl)-1H-pyridine-3-carboxamide] was tested, and the Kd was 2.45 nM. Work on C[C@@H]1CN(c2cc(F)c(C3=CCN(c4ncc(F)cn4)C3)cc2NC(=O)c2c[nH]c(=O)cc2C(F)(F)F)C[C@H](C)N1C [Example 440, N-[4-fluoro-5-[1-(5-fluoropyrimidin-2-yl)-2,5-dihydropyrrol-3-yl]-2-[(3R,5S)-3,4,5-trimethylpiperazin-1-yl]phenyl]-6-oxo-4-(trifluoromethyl)-1H-pyridine-3-carboxamide] yielded a Kd of 2.88 nM. C[C@@H]1CN(c2cc(F)c(C3=CCN(C(=O)N4CCCC4)C3)cc2NC(=O)c2c[nH]c(=O)cc2C(F)(F)F)C[C@H](C)N1C [Example 441, N-[4-fluoro-5-[1-(pyrrolidine-1-carbonyl)-2,5-dihydropyrrol-3-yl]-2-[(3R,5S)-3,4,5-trimethylpiperazin-1-yl]phenyl]-6-oxo-4-(trifluoromethyl)-1H-pyridine-3-carboxamide] showed a Kd of 1.91 nM. With C[C@@H]1CN(c2cc(F)c(C3=CCN(C(=O)c4cnccn4)C3)cc2NC(=O)c2c[nH]c(=O)cc2C(F)(F)F)C[C@H](C)N1C [Example 442, N-[4-fluoro-5-[1-(pyrazine-2-carbonyl)-2,5-dihydropyrrol-3-yl]-2-[(3R,5S)-3,4,5-trimethylpiperazin-1-yl]phenyl]-6-oxo-4-(trifluoromethyl)-1H-pyridine-3-carboxamide] the Kd was 3.67 nM. CC(C)COC(=O)N1CC=C(c2cc(NC(=O)c3c[nH]c(=O)cc3C(F)(F)F)c(N3C[C@@H](C)N(C)[C@@H](C)C3)cc2F)C1 [Example 443, 2-methylpropyl 3-[2-fluoro-5-[[6-oxo-4-(trifluoromethyl)-1H-pyridine-3-carbonyl]amino]-4-[(3R,5S)-3,4,5-trimethylpiperazin-1-yl]phenyl]-2,5-dihydropyrrole-1-carboxylate] gave a Kd of 2.37 nM. C[C@@H]1CN(c2cc(F)c(C3=CCN(c4ncc(C=O)cn4)C3)cc2NC(=O)c2c[nH]c(=O)cc2C(F)(F)F)C[C@H](C)N1C [Example 444, N-[4-fluoro-5-[1-(5-formylpyrimidin-2-yl)-2,5-dihydropyrrol-3-yl]-2-[(3R,5S)-3,4,5-trimethylpiperazin-1-yl]phenyl]-6-oxo-4-(trifluoromethyl)-1H-pyridine-3-carboxamide] showed a Kd of 2.96 nM. C[C@@H]1CN(c2cc(F)c(-c3cnn(C)c3)cc2NC(=O)c2c[nH]c(=O)cc2C(F)(F)F)C[C@H](C)N1C [Example 445, N-[4-fluoro-5-(1-methylpyrazol-4-yl)-2-[(3R,5S)-3,4,5-trimethylpiperazin-1-yl]phenyl]-6-oxo-4-(trifluoromethyl)-1H-pyridine-3-carboxamide] showed a Kd of 1.95 nM. C[C@@H]1CN(c2cc(F)c(-c3nc(C#N)cs3)cc2NC(=O)c2c[nH]c(=O)cc2C(F)(F)F)C[C@H](C)N1C [Example 446, N-[5-(4-cyano-1,3-thiazol-2-yl)-4-fluoro-2-[(3R,5S)-3,4,5-trimethylpiperazin-1-yl]phenyl]-6-oxo-4-(trifluoromethyl)-1H-pyridine-3-carboxamide] was tested, and the Kd was 2.94 nM. For C[C@@H]1CN(c2cc(F)c(-c3ncc(C#N)s3)cc2NC(=O)c2c[nH]c(=O)cc2C(F)(F)F)C[C@H](C)N1C [Example 447, N-[5-(5-cyano-1,3-thiazol-2-yl)-4-fluoro-2-[(3R,5S)-3,4,5-trimethylpiperazin-1-yl]phenyl]-6-oxo-4-(trifluoromethyl)-1H-pyridine-3-carboxamide], the Kd was 2.88 nM. C[C@@H]1CN(c2cc(F)c(-c3ccc(N4CCOCC4)c(F)c3)cc2NC(=O)c2cn(C)c(=O)cc2C(F)F)C[C@H](C)N1C [Example 449, 4-(difluoromethyl)-N-[4-fluoro-5-(3-fluoro-4-morpholin-4-ylphenyl)-2-[(3R,5S)-3,4,5-trimethylpiperazin-1-yl]phenyl]-1-methyl-6-oxopyridine-3-carboxamide] showed a Kd of 9.03 nM. C[C@@H]1CN(c2cc(F)c(-c3cnc(N4CCN(C5CC5)CC4)nc3)cc2NC(=O)c2ccc(F)cc2C(F)(F)F)C[C@H](C)N1C [Example 454, N-[5-[2-(4-cyclopropylpiperazin-1-yl)pyrimidin-5-yl]-4-fluoro-2-[(3R,5S)-3,4,5-trimethylpiperazin-1-yl]phenyl]-4-fluoro-2-(trifluoromethyl)benzamide] gave a Kd of 4.05 nM. For C[C@@H]1CN(c2cc(F)c(C3=CCN(c4ncc(CN(C)C)cn4)C3)cc2NC(=O)c2c[nH]c(=O)cc2C(F)(F)F)C[C@H](C)N1C [Example 457, N-[5-[1-[5-[(dimethylamino)methyl]pyrimidin-2-yl]-2,5-dihydropyrrol-3-yl]-4-fluoro-2-[(3R,5S)-3,4,5-trimethylpiperazin-1-yl]phenyl]-6-oxo-4-(trifluoromethyl)-1H-pyridine-3-carboxamide], the Kd was 2.57 nM. Work on C[C@@H]1CN(c2cc(F)c(C3=CCN(c4ncc(CN5CCOCC5)cn4)C3)cc2NC(=O)c2c[nH]c(=O)cc2C(F)(F)F)C[C@H](C)N1C [Example 458, N-[4-fluoro-5-[1-[5-(morpholin-4-ylmethyl)pyrimidin-2-yl]-2,5-dihydropyrrol-3-yl]-2-[(3R,5S)-3,4,5-trimethylpiperazin-1-yl]phenyl]-6-oxo-4-(trifluoromethyl)-1H-pyridine-3-carboxamide] yielded a Kd of 0.474 nM. Compound C[C@@H]1CN(c2ncc(-c3cc(NC(=O)c4cn(C)c(=O)cc4C(F)F)c(N4C[C@@H](C)N(C)[C@@H](C)C4)cc3F)cn2)CCO1 [Example 461, 4-(difluoromethyl)-N-[4-fluoro-5-[2-[(2R)-2-methylmorpholin-4-yl]pyrimidin-5-yl]-2-[(3R,5S)-3,4,5-trimethylpiperazin-1-yl]phenyl]-1-methyl-6-oxopyridine-3-carboxamide] has a Kd of 4.93 nM. Work on CC(C)N1CCN(c2ncc(-c3cc(NC(=O)c4ccc(F)cc4C(F)(F)F)c(N4C[C@@H](C)N(C)[C@@H](C)C4)cc3F)cn2)CC1 [Example 466, 4-fluoro-N-[4-fluoro-5-[2-(4-propan-2-ylpiperazin-1-yl)pyrimidin-5-yl]-2-[(3R,5S)-3,4,5-trimethylpiperazin-1-yl]phenyl]-2-(trifluoromethyl)benzamide] yielded a Kd of 2.28 nM. C[C@@H]1COCCN1c1ncc(-c2cc(NC(=O)c3c[nH]c(=O)cc3C(F)(F)F)c(N3CCN(C)[C@@H](C)C3)cc2F)cn1 [Example 468, N-[4-fluoro-2-[(3S)-3,4-dimethylpiperazin-1-yl]-5-[2-[(3R)-3-methylmorpholin-4-yl]pyrimidin-5-yl]phenyl]-6-oxo-4-(trifluoromethyl)-1H-pyridine-3-carboxamide] showed a Kd of 2.28 nM. C[C@@H]1COCCN1c1ncc(-c2cc(NC(=O)c3c[nH]c(=O)cc3C(F)(F)F)c(N3C[C@@H](C)N(C)[C@@H](C)C3)cc2F)cn1 [Example 469, N-[4-fluoro-5-[2-[(3R)-3-methylmorpholin-4-yl]pyrimidin-5-yl]-2-[(3R,5S)-3,4,5-trimethylpiperazin-1-yl]phenyl]-6-oxo-4-(trifluoromethyl)-1H-pyridine-3-carboxamide] gave a Kd of 5.64 nM. C[C@@H]1CN(c2cc(F)c(-c3cnc(N4CCOCC4)nc3)cc2NC(=O)c2c[nH]c(=O)cc2C(F)(F)F)C[C@H](C)[N+]1(C)C [Example 479, N-[4-fluoro-5-(2-morpholin-4-ylpyrimidin-5-yl)-2-[(3R,5S)-3,4,4,5-tetramethylpiperazin-4-ium-1-yl]phenyl]-6-oxo-4-(trifluoromethyl)-1H-pyridine-3-carboxamide] showed a Kd of 3.54 nM. C[C@@H]1CN(c2cc(F)c(-c3nc(C(=O)NCC4CC4)cs3)cc2NC(=O)c2c[nH]c(=O)cc2C(F)(F)F)C[C@H](C)N1C [Example 482, N-(cyclopropylmethyl)-2-[2-fluoro-5-[[6-oxo-4-(trifluoromethyl)-1H-pyridine-3-carbonyl]amino]-4-[(3R,5S)-3,4,5-trimethylpiperazin-1-yl]phenyl]-1,3-thiazole-4-carboxamide] showed a Kd of 1.75 nM. With C[C@@H]1CN(c2cc(F)c(-c3nc(C(=O)NC4CCCCC4)cs3)cc2NC(=O)c2c[nH]c(=O)cc2C(F)(F)F)C[C@H](C)N1C [Example 484, N-Cyclohexyl-2-[2-fluoro-5-[[6-oxo-4-(trifluoromethyl)-1H-pyridine-3-carbonyl]amino]-4-[(3R,5S)-3,4,5-trimethylpiperazin-1-yl]phenyl]-1,3-thiazole-4-carboxamide] the Kd was 3.07 nM. With C[C@@H]1CN(c2cc(F)c(-c3nc(C(=O)N(C)C4CCCCC4)cs3)cc2NC(=O)c2c[nH]c(=O)cc2C(F)(F)F)C[C@H](C)N1C [Example 485, N-cyclohexyl-2-[2-fluoro-5-[[6-oxo-4-(trifluoromethyl)-1H-pyridine-3-carbonyl]amino]-4-[(3R,5S)-3,4,5-trimethylpiperazin-1-yl]phenyl]-N-methyl-1,3-thiazole-4-carboxamide] the Kd was 2.21 nM. In the case of C[C@@H]1CN(c2cc(F)c(-c3nc(C(=O)N4CCOCC4)cs3)cc2NC(=O)c2c[nH]c(=O)cc2C(F)(F)F)C[C@H](C)N1C [Example 486, N-[4-fluoro-5-[4-(morpholine-4-carbonyl)-1,3-thiazol-2-yl]-2-[(3R,5S)-3,4,5-trimethylpiperazin-1-yl]phenyl]-6-oxo-4-(trifluoromethyl)-1H-pyridine-3-carboxamide], the Kd is reported as 2.44 nM.
